Molecules are shown by their SMILES. Activity calls are given as the source filed them. No cut-off for these calls is given here.

For assay [1], the target named is T1, STE20-related kinase adapter protein alpha (Homo sapiens) (UniProt Q7RTN6).
T1 sequence (whole entry): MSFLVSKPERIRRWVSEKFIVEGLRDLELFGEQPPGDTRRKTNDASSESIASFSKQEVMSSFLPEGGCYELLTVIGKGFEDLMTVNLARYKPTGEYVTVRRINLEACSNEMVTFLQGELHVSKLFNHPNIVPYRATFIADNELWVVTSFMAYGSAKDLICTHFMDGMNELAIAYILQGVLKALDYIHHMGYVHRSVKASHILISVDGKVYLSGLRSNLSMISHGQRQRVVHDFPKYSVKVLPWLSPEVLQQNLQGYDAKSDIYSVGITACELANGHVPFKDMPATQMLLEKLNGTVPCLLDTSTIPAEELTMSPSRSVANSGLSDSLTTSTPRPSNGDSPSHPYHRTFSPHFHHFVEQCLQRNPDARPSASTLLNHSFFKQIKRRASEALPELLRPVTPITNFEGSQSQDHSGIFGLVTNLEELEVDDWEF
The assay can be described thus: Binding affinity to LYK5 in human SUM159 cell lysates by multiplexed inhibitor bead profiling-based LC-MS/MS analysis. As to conditions: Lysate. The format is subcellular.

The target of assay [2] is Epidermal growth factor receptor (Homo sapiens, UniProt P00533). Put plainly: Inhibition of EGFR in human UCH2 cells assessed as reduction in EGF-induced EGFR phosphorylation at Y1068 residue at 10 uM preincubated for 4 hrs followed by EGF--stimulation and measured after 15 mins by Western blot analysis relative to control. The format is cell-based.
Epidermal growth factor receptor, sequence (P00533 whole entry): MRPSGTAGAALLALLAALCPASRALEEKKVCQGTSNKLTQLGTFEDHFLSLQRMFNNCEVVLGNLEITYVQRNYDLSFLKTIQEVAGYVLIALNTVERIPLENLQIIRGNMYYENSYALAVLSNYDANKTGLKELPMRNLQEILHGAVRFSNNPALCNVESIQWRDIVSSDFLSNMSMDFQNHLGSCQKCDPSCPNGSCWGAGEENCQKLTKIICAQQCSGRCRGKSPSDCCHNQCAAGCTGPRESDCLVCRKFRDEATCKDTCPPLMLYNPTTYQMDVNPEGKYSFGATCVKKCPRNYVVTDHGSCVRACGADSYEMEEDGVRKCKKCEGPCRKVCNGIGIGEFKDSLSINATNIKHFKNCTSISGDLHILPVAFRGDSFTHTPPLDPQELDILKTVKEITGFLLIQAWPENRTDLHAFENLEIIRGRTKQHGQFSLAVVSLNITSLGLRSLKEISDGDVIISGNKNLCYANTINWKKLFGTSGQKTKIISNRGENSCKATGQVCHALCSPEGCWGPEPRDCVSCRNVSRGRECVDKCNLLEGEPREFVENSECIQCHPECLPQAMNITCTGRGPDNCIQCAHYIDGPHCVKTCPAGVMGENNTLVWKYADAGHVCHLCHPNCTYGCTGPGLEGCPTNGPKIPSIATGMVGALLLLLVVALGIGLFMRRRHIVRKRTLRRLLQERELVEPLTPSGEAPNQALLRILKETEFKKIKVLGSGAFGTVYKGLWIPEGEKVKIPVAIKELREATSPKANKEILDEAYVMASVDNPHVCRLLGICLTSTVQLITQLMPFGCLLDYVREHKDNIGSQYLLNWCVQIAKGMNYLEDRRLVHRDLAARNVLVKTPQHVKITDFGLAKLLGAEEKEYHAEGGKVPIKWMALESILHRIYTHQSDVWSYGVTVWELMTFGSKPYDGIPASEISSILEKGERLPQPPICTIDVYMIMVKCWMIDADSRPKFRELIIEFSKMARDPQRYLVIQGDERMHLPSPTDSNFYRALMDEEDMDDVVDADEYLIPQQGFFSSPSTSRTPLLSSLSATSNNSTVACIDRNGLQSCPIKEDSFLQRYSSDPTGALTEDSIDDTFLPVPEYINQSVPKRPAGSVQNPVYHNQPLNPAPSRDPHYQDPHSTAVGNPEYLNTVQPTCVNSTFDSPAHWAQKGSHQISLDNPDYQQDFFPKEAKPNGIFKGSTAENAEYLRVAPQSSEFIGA

The term inhibition denotes the drop in the measured response relative to a control, in per cent. Regarding `C#Cc1cccc(Nc2ccnc3cc(OC)c(OC)cc23)c1`, the outcome in assay [1] was Active. In addition, the inhibition in assay [2] amounted to 71.3%.
